Results: patent publication US20260226073A1 (AURIGENE ONCOLOGY LIMITED, priority 2023, published 2026)

How the values were obtained:
[1] = test system: NFAT signaling pathway in Jurkat NFAT reporter cells; assay: Jurkat NFAT reporter assay; type: cell-based; conditions: Homo sapiens, 30 min with compound, then soluble anti-human CD3/CD28 antibody for 6 hours, luciferase readout, read-out: EC50 (Group)
Summary of the method: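 Jurkat cells bearing an NFAT-RE-driven luciferase reporter (1×10^5 per well) preincubated with Cbl-b inhibitor for 30 min, then stimulated 6 h with soluble anti-CD3/CD28. Luminescence read with Bio-Glo; values are fold change over anti-CD3/CD28-stimulated cells without inhibitor.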

[2] = test system: human PBMCs stimulated with anti-CD3/CD28 Dynabeads; assay: Human PBMC cytokine release assay (IL-2 by ELISA); type: cell-based; conditions: Dynabeads CD3/CD28 48 hours, IL-2 ELISA, fold change over baseline, read-out: EC50 (human PBMC cytokine release, group)
Experimental: Peripheral blood mononuclear cells (PBMC) were isolated from healthy human donor using Histopaque (Sigma). The Cbl-inhibitor was added to 1×10^5 cells per well and the plate was incubated for 30 minutes at 37° C. in 5% CO2 at different concentrations with a final DMSO concentration of <0.5%. Following incubation with the Cbl-b inhibitor, human PBMCs were stimulated with Dynabeads™ Human T-Activator CD3/CD28 (Thermo Fisher Scientific) for 48 hours. Cell free supernatant were collected after end of incubation and were analyzed for cytokine secretion, including IL-2 by ELISA (R&D Systems). Readouts were reported as fold change over baseline. Here, baseline was the measurement obtained from human PBMCs stimulated with Dynabeads™ Human T-Activator CD3/CD28, where the cells were not incubated with a Cbl-b inhibitor.

[3] = molecular target: T1, human recombinant CBL-b (human Biotin CBL-b recombinant protein a.a. 39-426) (Homo sapiens, UniProt Q13191); assay: Biochemical assay for CBL-b inhibition (ligand displacement TR-FRET); type: binding; conditions: 50 nM CBL-b, 0.3 μM Bodipy FL-Probe, read-out: IC50 (CBL-b inhibition, group)
T1 construct: human Biotin CBL-b recombinant protein a.a; 39-426; Biotin (biotinylated); made in house
Summary of the method: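 Biotinylated CBL-b (a.a. 39-426, 50 nM final) pre-incubated with compound 60 min at RT in HEPES/NaCl/Triton/BSA/TCEP buffer, then Bodipy FL probe (0.3 μM final) 60 min, then terbium-streptavidin 60 min. TR-FRET read at 665/615 nm; IC50 and % max inhibition from sigmoidal fits.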

T1 sequence (Q13191 39-426): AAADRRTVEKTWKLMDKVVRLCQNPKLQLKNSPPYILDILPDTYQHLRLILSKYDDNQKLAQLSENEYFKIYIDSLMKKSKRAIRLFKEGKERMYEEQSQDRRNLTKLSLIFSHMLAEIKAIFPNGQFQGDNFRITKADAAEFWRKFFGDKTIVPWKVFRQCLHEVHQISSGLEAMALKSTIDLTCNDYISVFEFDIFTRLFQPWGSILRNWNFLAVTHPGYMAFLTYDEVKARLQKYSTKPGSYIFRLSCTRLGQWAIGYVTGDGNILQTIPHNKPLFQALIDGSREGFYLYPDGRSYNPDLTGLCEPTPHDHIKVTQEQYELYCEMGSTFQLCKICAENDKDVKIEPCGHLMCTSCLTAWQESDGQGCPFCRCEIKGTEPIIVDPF

EC50 [1]	IC50 [3]	SMILES	EC50 [2]
< 300 nM	80 to 300 nM	C[C@H]1CCCN(Cc2cc(N3Cc4ccc(C5(Cc6nncn6C)COC5)cc4C3=O)cc(C(F)(F)F)c2)C1 [Compound 1, (S)-6-(3-((4-Methyl-4H-1,2,4-triazol-3-yl)methyl)oxetan-3-yl)-2-(3-((3-methylpiperidin-1-yl)methyl)-5-(trifluoromethyl)phenyl)isoindolin-1-one]	< 5000 nM
< 300 nM	< 80 nM	C[C@H]1CCCN(Cc2cc(N3Cc4ccc(C5(Cc6nncn6C)COC5)cc4C3=O)nc(C(F)(F)F)c2)C1 [Compound 2]	< 5000 nM
< 300 nM	< 80 nM	Cc1cc(CN2CCC[C@H](C)C2)cc(N2Cc3ccc(C4(Cc5nncn5C)COC4)cc3C2=O)c1 [Compound 4, (S)-6-(3-((4-Methyl-4H-1,2,4-triazol-3-yl)methyl)oxetan-3-yl)-2-(3-methyl-5-((3-methylpiperidin-1-yl)methyl)phenyl)isoindolin-1-one]	< 5000 nM
< 300 nM	< 80 nM	C[C@H]1CCCN(Cc2cc(Cl)cc(N3Cc4ccc(C5(Cc6nncn6C)COC5)cc4C3=O)c2)C1 [Compound 6, (S)-2-(3-Chloro-5-((3-methylpiperidin-1-yl)methyl)phenyl)-6-(3-((4-methyl-4H-1,2,4-triazol-3-yl)methyl)oxetan-3-yl)isoindolin-1-one]	< 5000 nM
300 to 1000 nM	80 to 300 nM	CCc1cc(CN2CCC[C@H](C)C2)cc(N2Cc3ccc(C4(Cc5nncn5C)COC4)cc3C2=O)c1 [Compound 11, (S)-2-(3-Ethyl-5-((3-methylpiperidin-1-yl)methyl)phenyl)-6-(3-((4-methyl-4H-1,2,4-triazol-3-yl)methyl)oxetan-3-yl)isoindolin-1-one]	< 5000 nM
300 to 1000 nM	< 80 nM	Cc1cc(C(C)N2CCC[C@H](C)C2)cc(N2Cc3ccc(C4(Cc5nncn5C)COC4)cc3C2=O)c1 (stereo partly drawn) [Compound 12, 6-(3-((4-Methyl-4H-1,2,4-triazol-3-yl)methyl)oxetan-3-yl)-2-(3-methyl-5-(1-((S)-3-methylpiperidin-1-yl)ethyl)phenyl)isoindolin-1-one]	< 5000 nM
300 to 1000 nM	< 80 nM	Cn1cnnc1CC1(c2ccc3c(c2)C(=O)N(c2cc(CNCCC(F)(F)F)cc(C(F)(F)F)n2)C3)COC1 [Compound 25, 6-(3-((4-Methyl-4H-1,2,4-triazol-3-yl)methyl)oxetan-3-yl)-2-(6-(trifluoro-methyl)-4-(((3,3,3-trifluoropropyl)amino)methyl)pyridin-2-yl)isoindolin-1-one]	< 5000 nM
300 to 1000 nM	80 to 300 nM	Cn1cnnc1CC1(c2ccc3c(c2)C(=O)N(c2cc(CN4CC5CCCC5C4)cc(C(F)(F)F)n2)C3)COC1 (stereo not shown) [Compound 35, 2-(4-((Hexahydrocyclopenta[c]pyrrol-2(1H)-yl)methyl)-6-(trifluoromethyl)pyri-din-2-yl)-6-(3-((4-methyl-4H-1,2,4-triazol-3-yl)methyl)oxetan-3-yl)isoindolin-1-one]	< 5000 nM
< 300 nM	< 80 nM	C[C@@H]1C[C@H](C)CN(Cc2cc(N3Cc4ccc(C5(Cc6nncn6C)COC5)cc4C3=O)nc(C(F)(F)F)c2)C1 [Compound 39, 2-(4-(((3S,5R)-3,5-Dimethylpiperidin-1-yl)methyl)-6-(trifluoromethyl)pyridin-2-yl)-6-(3-((4-methyl-4H-1,2,4-triazol-3-yl)methyl)oxetan-3-yl)isoindolin-1-one]	< 5000 nM
< 300 nM	< 80 nM	C[C@H]1CCCN(Cc2cc(Cl)nc(N3Cc4ccc(C5(Cc6nncn6C)COC5)cc4C3=O)c2)C1 [Compound 40, (S)-2-(6-Chloro-4-((3-methylpiperidin-1-yl)methyl)pyridin-2-yl)-6-(3-((4-methyl-4H-1,2,4-triazol-3-yl)methyl)oxetan-3-yl)isoindolin-1-one]	< 5000 nM
< 300 nM	< 80 nM	C[C@@H]1C[C@H](C)CN(Cc2cc(Cl)nc(N3Cc4ccc(C5(Cc6nncn6C)COC5)cc4C3=O)c2)C1 [Compound 52, 2-(6-Chloro-4-(((3S,5R)-3,5-dimethylpiperidin-1-yl)methyl)pyridin-2-yl)-6-(3-((4-methyl-4H-1,2,4-triazol-3-yl)methyl)oxetan-3-yl)isoindolin-1-one]	< 5000 nM
300 to 1000 nM	< 80 nM	Cc1nc(CN2CCC[C@H](C)C2)cc(N2Cc3ccc(C4(Cc5nncn5C)COC4)cc3C2=O)n1 [Compound 53, (S)-6-(3-((4-Methyl-4H-1,2,4-triazol-3-yl)methyl)oxetan-3-yl)-2-(2-methyl-6-((3-methylpiperidin-1-yl)methyl)pyrimidin-4-yl)isoindolin-1-one]	< 5000 nM
1000 to 10000 nM	< 80 nM	Cc1cc(CNCC2(O)CC2)cc(N2Cc3ccc(-c4ccc(F)cc4-c4nncn4C)cc3C2=O)n1 [Compound 311]	
300 to 1000 nM	< 80 nM	Cc1cc(CN[C@@H]2CCC[C@H]2O)cc(N2Cc3ccc(-c4ccc(F)cc4-c4nncn4C)cc3C2=O)n1 [Compound 314, 6-(4-Fluoro-2-(4-methyl-4H-1,2,4-triazol-3-yl)phenyl)-2-(4-((((1R,2R)-2-hydroxycyclopentyl)amino)methyl)-6-methylpyridin-2-yl)isoindolin-1-one]	
< 300 nM	< 80 nM	Cc1cc(CN[C@@H](CO)C(C)C)cc(N2Cc3ccc(-c4ccc(F)cc4-c4nncn4C)cc3C2=O)n1 [Compound 315, (R)-6-(4-Fluoro-2-(4-methyl-4H-1,2,4-triazol-3-yl)phenyl)-2-(4-(((1-hydroxy-3-methylbutan-2-yl)amino)methyl)-6-methylpyridin-2-yl)isoindolin-1-one]	
< 300 nM	< 80 nM	Cc1cc(CNCC2(O)CCCC2)cc(N2Cc3ccc(-c4ccc(F)cc4-c4nncn4C)cc3C2=O)n1 [Compound 319, 6-(4-Fluoro-2-(4-methyl-4H-1,2,4-triazol-3-yl)phenyl)-2-(4-((((1-hydroxy-cyclopentyl)methyl)amino)methyl)-6-methylpyridin-2-yl)isoindolin-1-one]	
300 to 1000 nM	< 80 nM	Cc1cc(CNCC2CC2)cc(N2Cc3ccc(-c4ccc(F)cc4-c4nncn4C4CC4)cc3C2=O)n1 [Compound 320, 6-(2-(4-Cyclopropyl-4H-1,2,4-triazol-3-yl)-4-fluorophenyl)-2-(4-(((cyclopropyl-methyl)amino)methyl)-6-methylpyridin-2-yl)isoindolin-1-one]	
< 300 nM	< 80 nM	CCCNCc1cc(C)nc(N2Cc3ccc(-c4ccc(F)cc4-c4nncn4C)cc3C2=O)c1 [Compound 323, 6-(4-Fluoro-2-(4-methyl-4H-1,2,4-triazol-3-yl)phenyl)-2-(6-methyl-4-((propyl-amino)methyl)pyridin-2-yl)isoindolin-1-one]	
1000 to 10000 nM	< 80 nM	Cc1cc(CNCC2CCO2)cc(N2Cc3ccc(-c4ccc(F)cc4-c4nncn4C)cc3C2=O)n1 (stereo not shown) [Compound 325, 6-(4-Fluoro-2-(4-methyl-4H-1,2,4-triazol-3-yl)phenyl)-2-(6-methyl-4-(((oxetan-2-ylmethyl)amino)methyl)pyridin-2-yl)isoindolin-1-one]	
1000 to 10000 nM	< 80 nM	Cc1cc(CNCCC(F)(F)F)cc(N2Cc3ccc(-c4ccc(F)cc4-c4nncn4C)cc3C2=O)n1 [Compound 326, 6-(4-Fluoro-2-(4-methyl-4H-1,2,4-triazol-3-yl)phenyl)-2-(6-methyl-4-(((3,3,3-trifluoropropyl)amino)methyl)pyridin-2-yl)isoindolin-1-one]	
300 to 1000 nM	< 80 nM	Cc1cc(CNCCCC(F)(F)F)cc(N2Cc3ccc(-c4ccc(F)cc4-c4nncn4C)cc3C2=O)n1 [Compound 328, 6-(4-Fluoro-2-(4-methyl-4H-1,2,4-triazol-3-yl)phenyl)-2-(6-methyl-4-(((4,4,4-trifluorobutyl)amino)methyl)pyridin-2-yl)isoindolin-1-one]	
< 300 nM	< 80 nM	Cc1cc(CNCC2CCCC2)cc(N2Cc3ccc(-c4ccc(F)cc4-c4nncn4C)cc3C2=O)n1 [Compound 329, 2-(4-(((Cyclopentylmethyl)amino)methyl)-6-methylpyridin-2-yl)-6-(4-fluoro-2-(4-methyl-4H-1,2,4-triazol-3-yl)phenyl)isoindolin-1-one]	
1000 to 10000 nM	< 80 nM	Cc1nc(N2Cc3ccc(-c4ccc(F)cc4-c4nncn4C)cc3C2=O)cc(CNCC2CC2)c1C(F)(F)F [Compound 337, 2-(4-(((Cyclopropylmethyl)amino)methyl)-6-methyl-5-(trifluoromethyl)-pyridin-2-yl)-6-(4-fluoro-2-(4-methyl-4H-1,2,4-triazol-3-yl)phenyl)isoindolin-1-one]	
